The results in this text go back to patent US20250179061A1 (SIRONAX LTD., priority 2022, published 2025).

This test concerns HT-29 cells. Kind of test: HT-29 necroptosis cell viability assay (TNF-α/SMAC mimetic/zVAD-FMK, CellTiter-Glo). Format: cell-based. The conditions noted are these: Homo sapiens, HT-29, HT-29 necroptosis cell viability, IC50 class symbols; read-out: Activity. In short, it runs like this:
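HT-29 cells (~5,000/well, overnight) in FBS-free McCoy's 5A with TNF-α 10 ng/ml, SMAC mimetic 6 μM and zVAD-FMK 10 μM plus 10-point 1:3 compound titration, 20 h at 37°C. ATP measured by CellTiter-Glo luminescence; IC50 as geometric mean of duplicates.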
For orientation: Cellular ATP, detected with luciferase, serves as a proxy for viable cell number.

SMILES strings stand for the structures. pIC50: −log10 of the molar value.

For the compound `CN(c1cc(Oc2ccc(-n3ncn(Cc4c(F)cccc4F)c3=O)cc2)ccn1)C1CCC1` [Example 352, 2-(4-((2-(cyclobutyl(methyl)amino)pyridin-4-yl)oxy)phenyl)-4-(2,6-difluorobenzyl)-2,4-dihydro-3H-1,2,4-triazol-3-one], the pIC50 is 6.00 to 7.00.
Next, `CCN(C)c1cc(Oc2ccc(-n3ncn(Cc4c(F)cccc4F)c3=O)cc2)ccn1` [Example 353, 4-(2,6-difluorobenzyl)-2-(4-((2-(ethyl(methyl)amino)pyridin-4-yl)oxy)phenyl)-2,4-dihydro-3H-1,2,4-triazol-3-one]: 6.00 to 7.00.
Next, `NC12CC(Nc3cc(Oc4ccc(-n5ncn(Cc6c(F)cccc6F)c5=O)cc4)ccn3)(C1)C2` [Example 354, 2-(4-((2-((3-aminobicyclo[1.1.1]pentan-1-yl)amino)pyridin-4-yl)oxy)phenyl)-4-(2,6-difluorobenzyl)-2,4-dihydro-3H-1,2,4-triazol-3-one]: 6.00 to 7.00.
Next, `CCOC1CN(c2nccc(Oc3ccc(-n4ncn(Cc5c(F)cccc5F)c4=O)cc3)c2F)C1` [Example 355, 4-(2,6-difluorobenzyl)-2-(4-((2-(3-ethoxyazetidin-1-yl)-3-fluoropyridin-4-yl)oxy)phenyl)-2,4-dihydro-3H-1,2,4-triazol-3-one]: over 7.00; `CC1(C#N)CCN(c2nccc(Oc3ccc(-n4ncn(Cc5c(F)cccc5F)c4=O)cc3)c2F)C1` (stereo not drawn) [Example 356, 1-(4-(4-(4-(2,6-difluorobenzyl)-5-oxo-4,5-dihydro-1H-1,2,4-triazol-1-yl)phenoxy)-3-fluoropyridin-2-yl)-3-methylpyrrolidine-3-carbonitrile]: over 7.00.
Consider `CC1C(C#N)CN1c1nccc(Oc2ccc(-n3ncn(Cc4c(F)cccc4F)c3=O)cc2)c1F` (stereo not drawn) [Example 357, 1-(4-(4-(4-(2,6-difluorobenzyl)-5-oxo-4,5-dihydro-1H-1,2,4-triazol-1-yl)phenoxy)-3-fluoropyridin-2-yl)-2-methylazetidine-3-carbonitrile], for which the pIC50 was over 7.00.
Next, `COC1(C#N)CN(c2nccc(Oc3ccc(-n4ncn(Cc5c(F)cccc5F)c4=O)cc3)c2F)C1` [Example 358, 1-(4-(4-(4-(2,6-difluorobenzyl)-5-oxo-4,5-dihydro-1H-1,2,4-triazol-1-yl)phenoxy)-3-fluoropyridin-2-yl)-3-methoxyazetidine-3-carbonitrile]: over 7.00.
Next, `COC1(C#N)CN(c2ccnc(Cl)c2Oc2ccc(-n3ncn(Cc4c(F)cccc4F)c3=O)cc2)C1` [Example 359, 1-(2-chloro-3-(4-(4-(2,6-difluorobenzyl)-5-oxo-4,5-dihydro-1H-1,2,4-triazol-1-yl)phenoxy)pyridin-4-yl)-3-methoxyazetidine-3-carbonitrile]: 6.00 to 7.00; `O=c1n(Cc2c(F)cccc2F)cnn1-c1ccc(Oc2ccnc(NC(C3CC3)C(F)(F)F)c2F)cc1` (stereo not drawn) [Example 360, 2-(4-((2-((1-cyclopropyl-2,2,2-trifluoroethyl)amino)-3-fluoropyridin-4-yl)oxy)phenyl)-4-(2,6-difluorobenzyl)-2,4-dihydro-3H-1,2,4-triazol-3-one]: 5.00 to 6.00; `N#CC12CC(Nc3nccc(Oc4ccc(-n5ncn(Cc6c(F)cccc6F)c5=O)cc4)c3F)(C1)C2` [Example 361, 3-((4-(4-(4-(2,6-difluorobenzyl)-5-oxo-4,5-dihydro-1H-1,2,4-triazol-1-yl)phenoxy)-3-fluoropyridin-2-yl)amino)bicyclo[1.1.1]pentane-1-carbonitrile]: 6.00 to 7.00.
Next, `O=c1n(Cc2c(F)cccc2F)cnn1-c1ccc(Oc2ccnc(NC3(C(F)(F)F)CC3)c2F)cc1` [Example 362, 4-(2,6-difluorobenzyl)-2-(4-((3-fluoro-2-((1-(trifluoromethyl)cyclopropyl)amino)pyridin-4-yl)oxy)phenyl)-2,4-dihydro-3H-1,2,4-triazol-3-one]: 5.00 to 6.00; `CCOC1CN(c2nccc(Oc3ccc(-n4ncn(Cc5c(F)cccc5F)c4=O)cc3F)c2F)C1` [Example 363, 4-(2,6-difluorobenzyl)-2-(4-((2-(3-ethoxyazetidin-1-yl)-3-fluoropyridin-4-yl)oxy)-3-fluorophenyl)-2,4-dihydro-3H-1,2,4-triazol-3-one]: over 7.00.
In the case of `CCOC1CN(c2cc(Oc3ccc(-n4ncn(Cc5c(F)cccc5F)c4=O)cc3F)c(F)cn2)C1` [Example 364, 4-(2,6-difluorobenzyl)-2-(4-((2-(3-ethoxyazetidin-1-yl)-5-fluoropyridin-4-yl)oxy)-3-fluorophenyl)-2,4-dihydro-3H-1,2,4-triazol-3-one], the pIC50 is over 7.00.
For the compound `CCOC1CN(c2cc(Oc3ccc(-n4ncn(Cc5c(F)cccc5F)c4=O)cc3F)c(Cl)cn2)C1` [Example 365, 2-(4-((5-chloro-2-(3-ethoxyazetidin-1-yl)pyridin-4-yl)oxy)-3-fluorophenyl)-4-(2,6-difluorobenzyl)-2,4-dihydro-3H-1,2,4-triazol-3-one], the pIC50 is over 7.00.
Next, `COC1(C#N)CN(c2cc(Oc3ccc(-n4ncn(Cc5c(F)cccc5F)c4=O)cc3)ccn2)C1` [Example 366, 1-(4-(4-(4-(2,6-difluorobenzyl)-5-oxo-4,5-dihydro-1H-1,2,4-triazol-1-yl)phenoxy)pyridin-2-yl)-3-methoxyazetidine-3-carbonitrile]: over 7.00; `COC1(C#N)CN(c2cc(Oc3ccc(-n4ncn(Cc5c(F)cccc5F)c4=O)cc3F)ccn2)C1` [Example 367, 1-(4-(4-(4-(2,6-difluorobenzyl)-5-oxo-4,5-dihydro-1H-1,2,4-triazol-1-yl)-2-fluorophenoxy)pyridin-2-yl)-3-methoxyazetidine-3-carbonitrile]: over 7.00; `C[C@H]1C[C@@H](NC(=O)OC(C)(C)C)CN1c1cc(Oc2ccc(-n3ncn(Cc4c(F)cccc4F)c3=O)cc2F)ccn1` [Example 368, tert-butyl ((3R,5S)-1-(4-(4-(4-(2,6-difluorobenzyl)-5-oxo-4,5-dihydro-1H-1,2,4-triazol-1-yl)-2-fluorophenoxy)pyridin-2-yl)-5-methylpyrrolidin-3-yl)carbamate]: 6.00 to 7.00.
Next, `C[C@H]1C[C@@H](N)CN1c1cc(Oc2ccc(-n3ncn(Cc4c(F)cccc4F)c3=O)cc2F)ccn1` [Example 369, 2-(4-((2-((2S,4R)-4-amino-2-methylpyrrolidin-1-yl)pyridin-4-yl)oxy)-3-fluorophenyl)-4-(2,6-difluorobenzyl)-2,4-dihydro-3H-1,2,4-triazol-3-one]: over 7.00; `CCOC1CN(c2cc(Oc3ccc(-n4ncn(Cc5c(F)cccc5F)c4=O)cc3F)c(C)cn2)C1` [Example 370, 4-(2,6-difluorobenzyl)-2-(4-((2-(3-ethoxyazetidin-1-yl)-5-methylpyridin-4-yl)oxy)-3-fluorophenyl)-2,4-dihydro-3H-1,2,4-triazol-3-one]: over 7.00.
Next, `CN(C)C1(C)CN(c2cc(Oc3ccc(-n4ncn(Cc5c(F)cccc5F)c4=O)cc3F)c(F)cn2)C1` [Example 371, 4-(2,6-difluorobenzyl)-2-(4-((2-(3-(dimethylamino)-3-methylazetidin-1-yl)-5-fluoropyridin-4-yl)oxy)-3-fluorophenyl)-2,4-dihydro-3H-1,2,4-triazol-3-one]: 6.00 to 7.00; `CC(C)(C)OC(=O)NC(C)(C)C1CN(c2cc(Oc3ccc(-n4ncn(Cc5c(F)cccc5F)c4=O)cc3F)c(F)cn2)C1` [Example 372, tert-butyl (2-(1-(4-(4-(4-(2,6-difluorobenzyl)-5-oxo-4,5-dihydro-1H-1,2,4-triazol-1-yl)-2-fluorophenoxy)-5-fluoropyridin-2-yl)azetidin-3-yl)propan-2-yl)carbamate]: over 7.00.
`CC(C)(C)OC(=O)NC[C@H]1CCN1c1cc(Oc2ccc(-n3ncn(Cc4c(F)cccc4F)c3=O)cc2F)c(F)cn1` [Example 373, tert-butyl (R)-((1-(4-(4-(4-(2,6-difluorobenzyl)-5-oxo-4,5-dihydro-1H-1,2,4-triazol-1-yl)-2-fluorophenoxy)-5-fluoropyridin-2-yl)azetidin-2-yl)methyl)carbamate]: the pIC50 is over 7.00.
Next, `CC(C)(N)C1CN(c2cc(Oc3ccc(-n4ncn(Cc5c(F)cccc5F)c4=O)cc3F)c(F)cn2)C1` [Example 374, 2-(4-((2-(3-(2-aminopropan-2-yl)azetidin-1-yl)-5-fluoropyridin-4-yl)oxy)-3-fluorophenyl)-4-(2,6-difluorobenzyl)-2,4-dihydro-3H-1,2,4-triazol-3-one]: 6.00 to 7.00; `NC[C@H]1CCN1c1cc(Oc2ccc(-n3ncn(Cc4c(F)cccc4F)c3=O)cc2F)c(F)cn1` [Example 375, (R)-2-(4-((2-(2-(aminomethyl)azetidin-1-yl)-5-fluoropyridin-4-yl)oxy)-3-fluorophenyl)-4-(2,6-difluorobenzyl)-2,4-dihydro-3H-1,2,4-triazol-3-one]: over 7.00.
Next, `C[C@H]1[C@H](NC(=O)OC(C)(C)C)CN1c1cc(Oc2ccc(-n3ncn(Cc4c(F)cccc4F)c3=O)cc2F)c(F)cn1` [Example 376, tert-butyl ((2S,3R)-1-(4-(4-(4-(2,6-difluorobenzyl)-5-oxo-4,5-dihydro-1H-1,2,4-triazol-1-yl)-2-fluorophenoxy)-5-fluoropyridin-2-yl)-2-methylazetidin-3-yl)carbamate]: over 7.00; `C[C@H]1[C@H](N)CN1c1cc(Oc2ccc(-n3ncn(Cc4c(F)cccc4F)c3=O)cc2F)c(F)cn1` [Example 377, 2-(4-((2-((2S,3R)-3-amino-2-methylazetidin-1-yl)-5-fluoropyridin-4-yl)oxy)-3-fluorophenyl)-4-(2,6-difluorobenzyl)-2,4-dihydro-3H-1,2,4-triazol-3-one]: over 7.00.
Next, `NC1(CO)CN(c2cc(Oc3ccc(-n4ncn(Cc5c(F)cccc5F)c4=O)cc3F)c(F)cn2)C1` [Example 378, 2-(4-((2-(3-amino-3-(hydroxymethyl)azetidin-1-yl)-5-fluoropyridin-4-yl)oxy)-3-fluorophenyl)-4-(2,6-difluorobenzyl)-2,4-dihydro-3H-1,2,4-triazol-3-one]: 6.00 to 7.00.
